In this assay the target is Protein phosphatase 1A (Homo sapiens) (UniProt P35813). Description: inhibition of PP2C-alpha OMFP dephosphorylation – biochemical, fluorescence, OMFP substrate, round 5, selectivity assay for PP5 inhibitor project, late-stage follow-up (AID 624438). The note with it: purified MBP-PP2C-alpha.

Molecules are shown by their SMILES. The source made the active and inactive calls.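 The calls were made as follows: active = IC50 below 50 µM against the phosphatase PP2C-alpha; inactive = IC50 at or above 50 µM.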 Bounds are passed on as bounds.

Protein phosphatase 1A (Homo sapiens), sequence (P35813 whole entry, looked up): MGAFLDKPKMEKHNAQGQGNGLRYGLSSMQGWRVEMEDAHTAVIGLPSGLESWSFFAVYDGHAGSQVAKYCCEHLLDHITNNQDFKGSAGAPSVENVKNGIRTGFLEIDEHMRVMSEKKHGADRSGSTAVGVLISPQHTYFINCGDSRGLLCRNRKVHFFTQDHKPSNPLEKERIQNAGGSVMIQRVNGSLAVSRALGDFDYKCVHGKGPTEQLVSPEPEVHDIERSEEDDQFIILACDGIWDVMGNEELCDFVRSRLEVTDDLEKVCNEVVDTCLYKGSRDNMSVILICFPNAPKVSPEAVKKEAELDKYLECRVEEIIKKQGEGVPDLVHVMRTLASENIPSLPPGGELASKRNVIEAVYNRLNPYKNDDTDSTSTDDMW

The term IC50 denotes the concentration needed to halve the response being measured. Take `CC(C)Oc1ccccc1-c1n[nH]nc1C(=O)O`: the IC50 is > 1000 µM (inactive).

The values are drawn from PubChem BioAssay AID624438 (The Scripps Research Institute Molecular Screening Center, 2012).
